Measured values from ChEMBL document CHEMBL3351858, “Opioids and efflux transporters. Part 4: influence of N-substitution on P-glycoprotein substrate activity of noroxymorphone analogues” (Bioorg Med Chem Lett, 2014).
Active and inactive are the calls of the source. No cut-off for these calls is given here.

Species: Homo sapiens
Assay: Activity at human P-glycoprotein assessed as ATPase activity using firefly luciferase at 200 uM by Pgp-Glo assay in presence of MgATP
With `O=C1CC[C@@]2(O)[C@H]3Cc4ccc(O)c5c4[C@@]2(CCN3Cc2ccccc2)[C@H]1O5` the Activity was “Active”.
`O=C1CC[C@@]2(O)[C@H]3Cc4ccc(O)c5c4[C@@]2(CCN3CCCc2ccccc2)[C@H]1O5` was tested, and the Activity was “Active”.
For `C=CCN1CC[C@]23c4c5ccc(O)c4O[C@H]2C(=O)CC[C@@]3(O)[C@H]1C5`, the Activity was “inactive”.
`C=C(C)CN1CC[C@]23c4c5ccc(O)c4O[C@H]2C(=O)CC[C@@]3(O)[C@H]1C5` was tested, and the Activity was “Active”.
In the case of `O=C1CC[C@@]2(O)[C@H]3Cc4ccc(O)c5c4[C@@]2(CCN3CC2CC2)[C@H]1O5`, the Activity is reported as “inactive”.
`C/C=C/CN1CC[C@]23c4c5ccc(O)c4O[C@H]2C(=O)CC[C@@]3(O)[C@H]1C5` was tested, and the Activity was “Active”.
For `CC(C)=CCN1CC[C@]23c4c5ccc(O)c4O[C@H]2C(=O)CC[C@@]3(O)[C@H]1C5`, the Activity was “inactive”.
In the case of `O=C1CC[C@@]2(O)[C@H]3Cc4ccc(O)c5c4[C@@]2(CCN3CCc2ccccc2)[C@H]1O5`, the Activity is reported as “Active”.
`CN1CC[C@]23c4c5ccc(O)c4O[C@H]2C(=O)CC[C@@]3(O)[C@H]1C5` was tested, and the Activity was “inactive”.
